Measurements taken from the CheMixHub viscosity set.

Experiment: xn = mol fraction of the nth substance listed

C1COCO1 + CC#N
viscosity [mPa·s], 101 kPa
Conditions | x2 = 0.167 | x2 = 0.3109 | x2 = 0.4361 | x2 = 0.5461 | x2 = 0.6435 | x2 = 0.7302 | x2 = 0.8081 | x2 = 0.8783 | x2 = 0.942
298.15 K | 0.5233 | 0.4737 | 0.436 | 0.4046 | 0.3783 | 0.3591 | 0.3444 | 0.338 | 0.3366
308.15 K | 0.4618 | 0.4235 | 0.3913 | 0.3646 | 0.3419 | 0.3251 | 0.3134 | 0.3077 | 0.307
318.15 K | 0.4132 | 0.3791 | 0.3502 | 0.3263 | 0.3065 | 0.291 | 0.2817 | 0.278 | 0.2797

CC(=O)c1ccccc1 + CC#N
308.15 K, 101 kPa
Conditions | viscosity [mPa·s]
x1 = 0.048 | 0.34
x1 = 0.1023 | 0.3845
x1 = 0.1626 | 0.4361
x1 = 0.2321 | 0.4959
x1 = 0.3113 | 0.5746
x1 = 0.4024 | 0.6736
x1 = 0.5125 | 0.8002
x1 = 0.6426 | 0.9514
x1 = 0.8018 | 1.144
x1 = 0.9135 | 1.284

C1COCO1 + CC(=O)O
298.15 K, 101 kPa
Conditions | viscosity [mPa·s]
x1 = 0.0826 | 1.097
x1 = 0.1685 | 1.076
x1 = 0.2578 | 1.042
x1 = 0.3508 | 0.996
x1 = 0.4477 | 0.9442
x1 = 0.5487 | 0.883
x1 = 0.6541 | 0.8162
x1 = 0.7643 | 0.7415
x1 = 0.8795 | 0.6626

CC(=O)c1ccccc1 + CC(=O)O
298.15 K, 101 kPa
Conditions | viscosity [mPa·s]
x2 = 0.0998 | 1.741
x2 = 0.2107 | 1.754
x2 = 0.2935 | 1.742
x2 = 0.4253 | 1.703
x2 = 0.4885 | 1.668
x2 = 0.6003 | 1.598
x2 = 0.6998 | 1.524
x2 = 0.8002 | 1.42
x2 = 0.9013 | 1.293

ClC(Cl)C(Cl)(Cl)Cl + CC(=O)c1ccccc1
298.15 K, 101 kPa
Conditions | viscosity [mPa·s]
x2 = 0.1163 | 2.34
x2 = 0.3295 | 2.36
x2 = 0.5338 | 2.26
x2 = 0.7313 | 2.03
x2 = 0.8974 | 1.8

C1COCO1 + CC(C)(C)O
303.15 K, 101 kPa
Conditions | viscosity [mPa·s]
x1 = 0.1001 | 1.967
x1 = 0.2001 | 1.468
x1 = 0.3001 | 1.102
x1 = 0.4001 | 0.8793
x1 = 0.5001 | 0.7657
x1 = 0.6001 | 0.6755
x1 = 0.7001 | 0.6067
x1 = 0.8001 | 0.5731
x1 = 0.9001 | 0.566

CC(=O)c1ccccc1 + CC(C)(C)O
viscosity [mPa·s], 101 kPa
Conditions | x2 = 0.1188 | x2 = 0.2314 | x2 = 0.3395 | x2 = 0.4286 | x2 = 0.545 | x2 = 0.6429 | x2 = 0.7373 | x2 = 0.8283 | x2 = 0.9142
298.15 K | 2.081 | 2.456 | 2.8 | 3.08 | 3.42 | 3.651 | 3.856 | 4.034 | 4.208
303.15 K | 1.794 | 2.055 | 2.284 | 2.473 | 2.712 | 2.874 | 3.004 | 3.127 | 3.247
308.15 K | 1.573 | 1.743 | 1.895 | 2.023 | 2.185 | 2.29 | 2.378 | 2.468 | 2.549

CN(C)P(=O)(N(C)C)N(C)C + CC(C)(C)O
303.15 K, 101.3 kPa
Conditions | viscosity [mPa·s]
x1 = 0.0784 | 3.704
x1 = 0.103 | 3.722
x1 = 0.1988 | 3.624
x1 = 0.2201 | 3.547
x1 = 0.3076 | 3.4
x1 = 0.4051 | 3.263
x1 = 0.4476 | 3.23
x1 = 0.5093 | 3.185
x1 = 0.6062 | 3.118
x1 = 0.7077 | 3.068
x1 = 0.8008 | 3.02
x1 = 0.9029 | 2.973

C=CCN(CC=C)C(=O)C(Cl)Cl + CC(C)=O
viscosity [mPa·s], 101 kPa
Conditions | x1 = 0.006314 | x1 = 0.01189 | x1 = 0.01711 | x1 = 0.02832 | x1 = 0.03651 | x1 = 0.04464 | x1 = 0.05006 | x1 = 0.05495
293.15 K | 0.3429 | 0.3501 | 0.3617 | 0.3719 | 0.3878 | 0.3997 | 0.4079 | 0.4157
298.15 K | 0.3335 | 0.3358 | 0.3476 | 0.3589 | 0.3712 | 0.3822 | 0.3905 | 0.3989
303.15 K | 0.3189 | 0.3227 | 0.3309 | 0.3424 | 0.3542 | 0.3646 | 0.3722 | 0.3793
308.15 K | 0.3041 | 0.3086 | 0.3185 | 0.3268 | 0.3372 | 0.3478 | 0.3553 | 0.3628
313.15 K | 0.2944 | 0.296 | 0.3075 | 0.3129 | 0.3247 | 0.3335 | 0.3423 | 0.3443

ClC(Cl)C(Cl)(Cl)Cl + CC(C)=O
298.15 K, 101 kPa
Conditions | viscosity [mPa·s]
x2 = 0.1476 | 1.93
x2 = 0.3178 | 1.52
x2 = 0.5103 | 1.12
x2 = 0.7037 | 0.695
x2 = 0.9068 | 0.417

CCCCCCCCC + CC(C)CC(C)(C)C
298.15 K, 101 kPa
Conditions | viscosity [mPa·s]
x2 = 0.07718 | 0.6409
x2 = 0.2128 | 0.6118
x2 = 0.3294 | 0.5969
x2 = 0.4097 | 0.5806
x2 = 0.5252 | 0.5564
x2 = 0.6958 | 0.5351
x2 = 0.7143 | 0.5219
x2 = 0.8186 | 0.5071
x2 = 0.8823 | 0.4985
x2 = 0.9211 | 0.4877
x2 = 0.9661 | 0.4829

CC(C)OC(C)C + CC(C)O
viscosity [mPa·s], 100 kPa
Conditions | x1 = 0.0797 | x1 = 0.1607 | x1 = 0.2387 | x1 = 0.3497 | x1 = 0.4359 | x1 = 0.5553 | x1 = 0.6498 | x1 = 0.7351 | x1 = 0.848 | x1 = 0.9369
293.15 K | 1.78 | 1.32 | 1.02 | 0.755 | 0.635 | 0.52 | 0.458 | 0.418 | 0.38 | 0.35
298.15 K | 1.55 | 1.18 | 0.92 | 0.68 | 0.572 | 0.48 | 0.43 | 0.395 | 0.36 | 0.332
303.15 K | 1.39 | 1.05 | 0.84 | 0.63 | 0.53 | 0.45 | 0.404 | 0.375 | 0.344 | 0.318
308.15 K | 1.21 | 0.94 | 0.75 | 0.56 | 0.48 | 0.417 | 0.379 | 0.356 | 0.328 | 0.305
313.15 K | 1.05 | 0.83 | 0.67 | 0.51 | 0.44 | 0.383 | 0.356 | 0.334 | 0.311 | 0.29
318.15 K | 0.93 | 0.74 | 0.6 | 0.465 | 0.4 | 0.354 | 0.331 | 0.313 | 0.293 | 0.276
323.15 K | 0.82 | 0.647 | 0.522 | 0.41 | 0.361 | 0.327 | 0.309 | 0.295 | 0.276 | 0.26
